Experimental data as given in the NIST ThermoML archive (doi:10.1021/je030102f).

Assay: xn = mol fraction of the nth substance listed
Details: 101.33 kPa, Liquid, vibrating tube

CC(C)=O [acetone] + O
mass density [kg/m3]
Details | x1 = 0.0988 | x1 = 0.2193 | x1 = 0.2973 | x1 = 0.3998 | x1 = 0.4986 | x1 = 0.5903 | x1 = 0.6984 | x1 = 0.7934 | x1 = 0.8916 | x1 = 1
283.15 K | 966.507 | 932.823 | 913.382 | 889.08 | 868.988 | 853.092 | 836.647 | 824.028 | 812.997 | 801.669
288.15 K | 963.567 | 928.61 | 908.777 | 884.145 | 863.861 | 847.829 | 831.252 | 818.534 | 807.424 | 796.037
293.14 K | – | 924.322 | 904.105 | 879.148 | – | – | – | – | – | –
293.15 K | 960.497 | – | – | – | 858.674 | 842.508 | 825.797 | 812.982 | 801.797 | 790.355
298.14 K | 957.313 | 919.968 | 899.375 | 874.098 | – | 837.135 | 820.292 | 807.383 | 796.13 | –
298.15 K | – | – | – | – | 853.436 | – | – | – | – | 784.638
303.14 K | – | 915.544 | 894.587 | 868.996 | 848.142 | 831.707 | 814.735 | 801.735 | 790.413 | 778.876
303.15 K | 954.01 | – | – | – | – | – | – | – | – | –
308.14 K | – | – | – | – | – | 826.22 | – | – | – | –
308.15 K | 950.61 | 911.052 | 889.735 | 863.836 | 842.791 | – | 809.12 | 796.028 | 784.645 | 773.065
313.14 K | 947.117 | 906.488 | 884.822 | 858.617 | – | 820.677 | 803.446 | 790.262 | 778.818 | 767.205
313.15 K | – | – | – | – | 837.381 | – | – | – | – | –
318.14 K | – | 901.855 | 879.849 | 853.341 | 831.924 | – | – | 784.437 | 772.936 | 761.288
318.15 K | 943.497 | – | – | – | – | 815.068 | 797.707 | – | – | –
323.14 K | – | – | 874.812 | 848.021 | 826.399 | – | 791.9 | 778.546 | 766.99 | 755.314
323.15 K | 939.767 | 897.151 | – | – | – | 809.395 | – | – | – | –
